{"source": "patent US20150164762A1", "about": "“USE OF ETHANOLAMINE PHOSPHATE” (priority 2012, published 2015)", "system": "BEAS-2B", "assay": "Comprehensive gene expression analysis with Whole Human Genome DNA microarray after EP treatment", "format": "cell-based", "experimental": "Cells of the established normal human airway epithelial cell line BEAS-2B were used in the experiment. These cells were expansively cultured in 10% FBS RPMI-1640, and seeded at a density of 1×10^5/cm^2 on a 24-well plate. After 24 hours 0.1% FBS RPMI-1640 was substituted, and EP was administered to a final concentration of 0 or 1 mM (n=4). After 24 hours, the cells were used as the DNA microarray samples. RNA was extracted using a QIAGEN RNeasy Mini Kit. The DNA microarray test was performed using a Whole Human Genome DNA microarray 4×44K (Agilent), and the necessary labeling reagents and the like for the DNA microarray test were all from Agilent. The DNA microarray test data were analyzed statistically with GeneSpring (Agilent) dedicated analysis software, and gene function analysis (Gene Ontology (GO) analysis) was performed based on differential expression. The purpose of the GO analysis is to determine stochastically the degree to which gene sets with statistically significant differential expression correspond to known functional classification gene sets. […] The p-value is calculated according to the following formula.", "key": {"[1]": {"conditions": "probe A_23_P306987, 1 mM EP, 24 h"}, "[2]": {"conditions": "probe A_23_P315815, NM_004495, EP vs control"}, "[3]": {"conditions": "probe A_23_P326913, BC019095, EP vs control"}, "[4]": {"conditions": "probe A_23_P336611, 1 mM EP, 24 h"}, "[5]": {"conditions": "probe A_23_P337242, 1 mM EP, 24 h"}, "[6]": {"conditions": "probe A_23_P344421, 1 mM EP, 24 h"}, "[7]": {"conditions": "probe A_23_P346311, 1 mM EP, 24 h"}, "[8]": {"conditions": "probe A_23_P358944, 1 mM EP, 24 h"}, "[9]": {"conditions": "probe A_23_P360777, NM_013960, EP vs control"}, "[10]": {"conditions": "probe A_23_P360797, 1 mM EP, 24 h"}, "[11]": {"conditions": "probe A_23_P371727, 1 mM EP, 24 h"}, "[12]": {"conditions": "probe A_23_P373521, 1 mM EP, 24 h"}, "[13]": {"conditions": "probe A_23_P382775, 1 mM EP, 24 h"}, "[14]": {"conditions": "probe A_23_P383278, NM_023078, EP vs control"}, "[15]": {"conditions": "probe A_23_P404887, 1 mM EP, 24 h"}, "[16]": {"conditions": "probe A_23_P407012, NM_172210, EP vs control"}, "[17]": {"conditions": "probe A_23_P411296, 1 mM EP, 24 h"}, "[18]": {"conditions": "probe A_23_P426305, NM_003734, EP vs control"}, "[19]": {"conditions": "probe A_23_P500034, 1 mM EP, 24 h"}, "[20]": {"conditions": "probe A_23_P502553, 1 mM EP, 24 h"}, "[21]": {"conditions": "probe A_23_P2094013, 1 mM EP, 24 h"}, "[22]": {"conditions": "probe A_24_P4661, 1 mM EP, 24 h"}, "[23]": {"conditions": "probe A_24_P12401, NM_001025366, EP vs control"}, "[24]": {"conditions": "probe A_24_P18105, NM_032466, EP vs control"}, "[25]": {"conditions": "probe A_24_P38363, 1 mM EP, 24 h"}, "[26]": {"conditions": "probe A_24_P60930, NM_006129, EP vs control"}, "[27]": {"conditions": "probe A_24_P83815, 1 mM EP, 24 h"}, "[28]": {"conditions": "probe A_24_P122921, 1 mM EP, 24 h"}, "[29]": {"conditions": "probe A_24_P135322, 1 mM EP, 24 h"}, "[30]": {"conditions": "probe A_24_P139152, 1 mM EP, 24 h"}, "[31]": {"conditions": "probe A_24_P139993, 1 mM EP, 24 h"}, "[32]": {"conditions": "probe A_24_P175519, NM_003329, EP vs control"}, "[33]": {"conditions": "probe A_24_P179400, NM_001025370, EP vs control"}, "[34]": {"conditions": "probe A_24_P193911, 1 mM EP, 24 h"}, "[35]": {"conditions": "probe A_24_P200000, NM_182915, EP vs control"}, "[36]": {"conditions": "probe A_24_P207479, 1 mM EP, 24 h"}, "[37]": {"conditions": "probe A_24_P209047, NM_000879, EP vs control"}}}
{"smiles": "NCCOP(=O)(O)O", "note": "[EP, Ethanolamine phosphate]", "values": [{"measurement": "SOX7 expression R: Ratio to control", "setting": "[1]", "value": 0.338, "unit": "times"}, {"measurement": "SOX7 expression log2 [ratio]", "setting": "[1]", "value": "−1.568"}, {"measurement": "NRG1 gene expression, R* ratio to control", "setting": "[2]", "value": 0.666, "unit": "times"}, {"measurement": "NRG1 gene expression, log2 [ratio]", "setting": "[2]", "value": "−0.586"}, {"measurement": "PRUNE2 gene expression, R* ratio to control", "setting": "[3]", "value": 1.441, "unit": "times"}, {"measurement": "PRUNE2 gene expression, log2 [ratio]", "setting": "[3]", "value": 0.527}, {"measurement": "APAF1 expression R*: Ratio to control", "setting": "[4]", "value": 0.420, "unit": "times"}, {"measurement": "APAF1 expression log2 [ratio]", "setting": "[4]", "value": "−1.253"}, {"measurement": "TGFBR2 expression R*: Ratio to control", "setting": "[5]", "value": 1.630, "unit": "times"}, {"measurement": "TGFBR2 expression log2 [ratio]", "setting": "[5]", "value": 0.705}, {"measurement": "ROBO4 expression R*: Ratio to control", "setting": "[6]", "value": 1.633, "unit": "times"}, {"measurement": "ROBO4 expression log2 [ratio]", "setting": "[6]", "value": 0.707}, {"measurement": "BAX expression R*: Ratio to control", "setting": "[7]", "value": 0.511, "unit": "times"}, {"measurement": "BAX expression log2 [ratio]", "setting": "[7]", "value": "−0.969"}, {"measurement": "PML expression R: Ratio to control", "setting": "[8]", "value": 0.586, "unit": "times"}, {"measurement": "PML expression log2 [ratio]", "setting": "[8]", "value": "−0.770"}, {"measurement": "NRG1 gene expression, R* ratio to control", "setting": "[9]", "value": 0.651, "unit": "times"}, {"measurement": "NRG1 gene expression, log2 [ratio]", "setting": "[9]", "value": "−0.620"}, {"measurement": "NTF3 expression R: Ratio to control", "setting": "[10]", "value": 0.492, "unit": "times"}, {"measurement": "NTF3 expression log2 [ratio]", "setting": "[10]", "value": "−1.024"}, {"measurement": "CKS2 expression R*: Ratio to control", "setting": "[11]", "value": 1.510, "unit": "times"}, {"measurement": "CKS2 expression log2 [ratio]", "setting": "[11]", "value": 0.595}, {"measurement": "HAND2 expression R*: Ratio to control", "setting": "[12]", "value": 1.971, "unit": "times"}, {"measurement": "HAND2 expression log2 [ratio]", "setting": "[12]", "value": 0.979}, {"measurement": "BBC3 expression R*: Ratio to control", "setting": "[13]", "value": 0.315, "unit": "times"}, {"measurement": "BBC3 expression log2 [ratio]", "setting": "[13]", "value": "−1.566"}, {"measurement": "PYCRL gene expression, R* ratio to control", "setting": "[14]", "value": 1.441, "unit": "times"}, {"measurement": "PYCRL gene expression, log2 [ratio]", "setting": "[14]", "value": 0.527}, {"measurement": "BIK expression R*: Ratio to control", "setting": "[15]", "value": 0.298, "unit": "times"}, {"measurement": "BIK expression log2 [ratio]", "setting": "[15]", "value": "−1.743"}, {"measurement": "CSF1 gene expression, R* ratio to control", "setting": "[16]", "value": 0.593, "unit": "times"}, {"measurement": "CSF1 gene expression, log2 [ratio]", "setting": "[16]", "value": "−0.753"}, {"measurement": "CEBPB expression R*: Ratio to control", "setting": "[17]", "value": "0,383 times"}, {"measurement": "CEBPB expression log2 [ratio]", "setting": "[17]", "value": "−1.385"}, {"measurement": "AOC3 gene expression, R* ratio to control", "setting": "[18]", "value": 1.540, "unit": "times"}, {"measurement": "AOC3 gene expression, log2 [ratio]", "setting": "[18]", "value": 0.623}, {"measurement": "GL12 expression R*: Ratio to control", "setting": "[19]", "value": 2.060, "unit": "times"}, {"measurement": "GL12 expression log2 [ratio]", "setting": "[19]", "value": 1.043}, {"measurement": "TRIM35 expression R*: Ratio to control", "setting": "[20]", "value": 0.618, "unit": "times"}, {"measurement": "TRIM35 expression log2 [ratio]", "setting": "[20]", "value": "−0.695"}, {"measurement": "CASP10 expression R*: Ratio to control", "setting": "[21]", "value": 0.552, "unit": "times"}, {"measurement": "CASP10 expression log2 [ratio]", "setting": "[21]", "value": "−0.857"}, {"measurement": "E124 expression R*: Ratio to control", "setting": "[22]", "value": 0.652, "unit": "times"}, {"measurement": "E124 expression log2 [ratio]", "setting": "[22]", "value": "−0.618"}, {"measurement": "VEGFA gene expression, R* ratio to control", "setting": "[23]", "value": 0.540, "unit": "times"}, {"measurement": "VEGFA gene expression, log2 [ratio]", "setting": "[23]", "value": "−0.889"}, {"measurement": "ASPH gene expression, R* ratio to control", "setting": "[24]", "value": 1.560, "unit": "times"}, {"measurement": "ASPH gene expression, log2 [ratio]", "setting": "[24]", "value": 0.642}, {"measurement": "MYC expression R*: Ratio to control", "setting": "[25]", "value": 1.686, "unit": "times"}, {"measurement": "MYC expression log2 [ratio]", "setting": "[25]", "value": 0.754}, {"measurement": "BMP1 gene expression, R* ratio to control", "setting": "[26]", "value": 0.613, "unit": "times"}, {"measurement": "BMP1 gene expression, log2 [ratio]", "setting": "[26]", "value": "−0.706"}, {"measurement": "NLRP1 expression R*: Ratio to control", "setting": "[27]", "value": 0.558, "unit": "times"}, {"measurement": "NLRP1 expression log2 [ratio]", "setting": "[27]", "value": "−0.841"}, {"measurement": "BCL2L11 expression R*: Ratio to control", "setting": "[28]", "value": 0.636, "unit": "times"}, {"measurement": "BCL2L11 expression log2 [ratio]", "setting": "[28]", "value": "−0.652"}, {"measurement": "NRP1 expression R*: Ratio to control", "setting": "[29]", "value": 1.664, "unit": "times"}, {"measurement": "NRP1 expression log2 [ratio]", "setting": "[29]", "value": 0.735}, {"measurement": "COL8A1 expression R*: Ratio to control", "setting": "[30]", "value": 1.703, "unit": "times"}, {"measurement": "COL8A1 expression log2 [ratio]", "setting": "[30]", "value": 0.768}, {"measurement": "CASP10 expression R*: Ratio to control", "setting": "[31]", "value": 0.609, "unit": "times"}, {"measurement": "CASP10 expression log2 [ratio]", "setting": "[31]", "value": "−0.716"}, {"measurement": "TXN gene expression, R* ratio to control", "setting": "[32]", "value": 1.438, "unit": "times"}, {"measurement": "TXN gene expression, log2 [ratio]", "setting": "[32]", "value": 0.524}, {"measurement": "VEGFA gene expression, R* ratio to control", "setting": "[33]", "value": 0.650, "unit": "times"}, {"measurement": "VEGFA gene expression, log2 [ratio]", "setting": "[33]", "value": "−0.621"}, {"measurement": "MAPRE2 expression R*: Ratio to control", "setting": "[34]", "value": 1.666, "unit": "times"}, {"measurement": "MAPRE2 expression log2 [ratio]", "setting": "[34]", "value": 0.736}, {"measurement": "STEAP3 gene expression, R* ratio to control", "setting": "[35]", "value": 2.009, "unit": "times"}, {"measurement": "STEAP3 gene expression, log2 [ratio]", "setting": "[35]", "value": 1.007}, {"measurement": "DEDD2 expression R*: Ratio to control", "setting": "[36]", "value": 0.597, "unit": "times"}, {"measurement": "DEDD2 expression log2 [ratio]", "setting": "[36]", "value": "−0.744"}, {"measurement": "IL5 gene expression, R* ratio to control", "setting": "[37]", "value": 0.304, "unit": "times"}, {"measurement": "IL5 gene expression, log2 [ratio]", "setting": "[37]", "value": "−1.719"}]}
